Data on 2 molecules can be found in patent US20150250810A1, “D-TAGATOSE-BASED COMPOSITIONS AND METHODS FOR PREVENTING AND TREATING ATHEROSCLEROSIS, METABOLIC SYNDROME, AND SYMPTOMS THEREOF” (University of Kentucky Research Foundation, priority 2008, published 2015).

In data set [1] the test system is human patients with type 2 diabetes. Description: Six-month oral TAG dosing study, HbA1c, serum triglycerides, LDL and HDL. In kind it is in vivo. The settings on record: for average reduction in serum triglycerides / average reduction in HbA1c from the HbA1c of the 2.5 g group: after six months; for decrease in average serum triglycerides from baseline: all TAG-consuming patients. As to the method:
Thirty-eight human patients with type 2 diabetes were administered one of three concentrations of TAG orally with meals. […] The treatment duration was six months and patients were randomized to one of the three doses. […] Patients also had to go through an eight week run-in period in which they were on a weight-maintaining diet and a daily exercise program under the supervision of the investigator prior to receiving their TAG dose. Patients with a current or recent history of treatment with any oral or injectable anti-diabetic treatment, as well as patients having one or more episodes of severe hypoglycemia within six months prior to entry into the study, were excluded from the study. Blood samples were taken throughout the experiment and levels of HbAc1, serum triglycerides, LDLs and HDLs were measured.

Data set [2] concerns LDLr-/- mice. Briefly: Serum cholesterol, triglyceride and lipoprotein concentrations in diet-fed mice (enzymatic assay kits). Type of data set: in vivo. The settings on record: for total serum triglyceride concentration: end of study; for very low density lipoprotein and LDL cholesterol concentrations / total serum cholesterol concentration: male and female mice; for very low density lipoprotein and LDL cholesterol concentrations: compared to control mice; for total serum cholesterol concentration: sucrose vs standard murine and TAG diets, TAG vs sucrose-fed. The text has this: Low-density lipoprotein receptor male and female mice (LDLr^-/-) that were approximately eight weeks old were fed either a standard murine diet (“control”), a diet enriched with sucrose, or a diet enriched with TAG for sixteen weeks. The diets enriched with sucrose or TAG contained equivalents amounts (g/kg) of protein, fat and carbohydrate, although due to the differences in energy content between sucrose (˜4.0 kcal/g) and TAG (˜1.5 kcal/g), the TAG-containing diet provided relatively more calories from fat and protein. Before the sixteen week feeding period, sucrose and TAG were introduced to the experimental mice gradually over a three week period, using an increasing ratio of sucrose or TAG diet to the standard murine diet.
Total serum cholesterol and plasma triglyceride concentrations were determined for the individual mice at the end of the study using enzymatic assay kits (Wako Pure Chemical, Richmond, Va.).

Data set [3] concerns LDLr-/- mice. Description: Body weight and adipose tissue characteristics in hypercholesterolemic mice fed sucrose- or TAG-enriched diet for sixteen weeks. Type of data set: in vivo. Conditions: for macrophage positive F4/80 immunostaining in adipose sections / adipocyte size: study end point; for body weight: enriched diet, sixteen weeks; for development of obesity (weight gain, adiposity, adipocyte hypertrophy): overall study conclusion. The text has this:
Low-density lipoprotein receptor male and female mice (LDLr^-/-) that were approximately eight weeks old were fed either a standard murine diet (“control”), a diet enriched with sucrose, or a diet enriched with TAG for sixteen weeks. The diets enriched with sucrose or TAG contained equivalents amounts (g/kg) of protein, fat and carbohydrate, although due to the differences in energy content between sucrose (˜4.0 kcal/g) and TAG (˜1.5 kcal/g), the TAG-containing diet provided relatively more calories from fat and protein. Before the sixteen week feeding period, sucrose and TAG were introduced to the experimental mice gradually over a three week period, using an increasing ratio of sucrose or TAG diet to the standard murine diet. Food intake was measured for the first four weeks of the sixteen week period and the body weight of the mice was measured weekly. […] At the study end point, retroperitoneal and epidydimal fat was dissected out of the body and stored in formalin and subsequently embedded in paraffin for examination of morphology and immunostaining. Total adipose tissue mass was increased in both male and female mice fed the diet enriched with sucrose when compared to mice fed murine or TAG-enriched diets. For characterization of adipocyte morphology, adipose tissue sections were deparrafinized and stained using hematoxylin and eosin and then analyzed using Image Pro Plus 5.1 (Media Cybernetics, Silver Spring, Md.). […] Macrophage positive F4/80 immunostaining was detected in adipose section from mice fed a sucrose-enriched diet but not in those fed standard murine or TAG-enriched diets.

For data set [4] the following is noted: humans; cited from earlier work.
Data set [5] concerns LDLr-/- mice. Description: Atherosclerosis by en face lesion surface area, immunohistochemistry, infrared microscopy and Gomori Trichome staining. Type of data set: in vivo. Conditions: for concentration of lipids in atherosclerotic lesions: infrared microscopy of aortic lesions. The text has this:
Low-density lipoprotein receptor male and female mice (LDLr^-/-) that were approximately eight weeks old were fed either a standard murine diet (“control”), a diet enriched with sucrose, or a diet enriched with TAG for sixteen weeks. The diets enriched with sucrose or TAG contained equivalents amounts (g/kg) of protein, fat and carbohydrate, although due to the differences in energy content between sucrose (˜4.0 kcal/g) and TAG (˜1.5 kcal/g), the TAG-containing diet provided relatively more calories from fat and protein. Before the sixteen week feeding period, sucrose and TAG were introduced to the experimental mice gradually over a three week period, using an increasing ratio of sucrose or TAG diet to the standard murine diet. At the study end point, mice were exsanguinated by perfusion through the left ventricle. Aortic tissues from the heart to the […] bifurcation were dissected and fixed overnight in 4% paraformaldehyde made with phosphate buffered solution (“PBS”) and then stored in PBS. Atherosclerosis was quantified by en face analysis of lesion surface area as detailed in Henriques, T A, et al., “Orchidectomy, but not ovariectomy, regulates angiotensin II-induced vascular diseases in apolipoprotein E-deficient mice,” Endocrinology, 145: 3866-3872 (2004). Atherosclerotic lesions were quantified by two independent observers. […] Macrophage infiltration into atherosclerotic areas was assessed using immunohistochemistry staining. […] Collagen may strengthen the fibrous caps in lipid-filled atheromas, preventing rupture.

Turning to `O=C(CO)[C@@H](O)[C@@H](O)[C@H](O)CO` [TAG, (3S,4S,5R)-1,3,4,5,6-pentahydroxy-hexan-2-one], in data set [1] (2.5 g and 5 g groups), the “average improvement of LDL:HDL ratio” value is given as 0.3. Also, the figures for the “average reduction in serum triglycerides” value in data set [1] (2.5 g group), in data set [1] (5 g group) and in data set [1] (7.5 g group) were 22.2 mg/dL, 96.8 mg/dL and 2.8 mg/dL, respectively. For the same molecule, the “decrease in LDL levels” value in data set [1] (2.5 g group, end of the first month) was “about 12.3 mg/dl”; in data set [1] (5 g group, end of the first month), “about 23.8 mg/dl”. Further, the “average reduction in HbA1c from the HbA1c of the 2.5 g group” value is given as 0.05% in data set [1] (5 g group) and 0.3% in data set [1] (7.5 g group). Also, the “decrease in average serum triglycerides from baseline” value in data set [1] (end of six months) is given as “about 41 mg/dl”; in data set [1] (end of the first month), “about 59 mg/dl”. For the same molecule, the “average decrease in serum LDL” value in data set [1] (all patients, end of the first month) is “about 13 mg/dl”. The “serum HDL change” value in data set [1] (end of the first month) is reported as “essentially unchanged”. In addition, the results for the “total serum triglyceride concentration” value in the data set on LDLr-/- mice [2] (female mice) and in the data set on LDLr-/- mice [2] (male mice) were 54 ± 8 mg/dL and 162 ± 29 mg/dL, respectively. Further, the “very low density lipoprotein and LDL cholesterol concentrations” value in the data set on LDLr-/- mice [2] is given as “only slightly elevated”. Besides, in the data set with LDLr-/- mice [2], the “total serum cholesterol concentration” value was “decreased”. The “macrophage positive F4/80 immunostaining in adipose sections” value with LDLr-/- mice [3] was “not”. Moreover, the body weight in the data set on LDLr-/- mice [3] (female LDLr-/- mice) worked out at 24 ± 1 g; in the data set with LDLr-/- mice [3] (male LDLr-/- mice), 27 ± 0 g. Also, the adipocyte size is 31±1 μm in the data set with LDLr-/- mice [3] (female mice) and 79±3 μm in the data set on LDLr-/- mice [3] (male mice). Moreover, the “development of obesity (weight gain, adiposity, adipocyte hypertrophy)” value with LDLr-/- mice [3] is on record as “did not promote substantial weight gain, enhanced adiposity or adipocyte hypertrophy”. Also, the “fraction of ingested substance absorbed into the bloodstream” value in data set [4] is “about 25%”. The “concentration of collagen in atherosclerotic lesions” value in the data set on LDLr-/- mice [5] (Gomori Trichome staining, compared to sucrose-fed mice) was “higher concentration”. Also, the “rate of atherosclerosis compared to control mice” value in the data set with LDLr-/- mice [5] (female mice) is listed as “slightly higher”. Besides, the “concentration of lipids in atherosclerotic lesions” value with LDLr-/- mice [5] is “intermediate amount”. Also, the “amount of atherosclerosis compared to control mice” value in the data set with LDLr-/- mice [5] (male mice) is on record as “did not exhibit a significantly different amount”.
As to `OC[C@H]1O[C@@](CO)(O[C@H]2O[C@H](CO)[C@@H](O)[C@H](O)[C@H]2O)[C@@H](O)[C@@H]1O` [sucrose, reference compound], the “total serum triglyceride concentration” value in the data set on LDLr-/- mice [2] (female mice) amounted to 326 ± 37 mg/dL; in the data set with LDLr-/- mice [2] (male mice) it was 822 ± 148 mg/dL. Further, the “very low density lipoprotein and LDL cholesterol concentrations” value with LDLr-/- mice [2] was “significantly elevated”. Moreover, the “total serum cholesterol concentration” value in the data set on LDLr-/- mice [2] was “markedly increased”. In addition, the “macrophage positive F4/80 immunostaining in adipose sections” value in the data set with LDLr-/- mice [3] is “detected”. For the same molecule, the body weight came out at 31 ± 1 g in the data set on LDLr-/- mice [3] (female LDLr-/- mice) and 40 ± 2 g in the data set with LDLr-/- mice [3] (male LDLr-/- mice). For the same molecule, the adipocyte size in the data set on LDLr-/- mice [3] (female mice) is 50±1 μm; in the data set with LDLr-/- mice [3] (male mice) it was 83±3 μm. In addition, the “total adipose tissue mass” value with LDLr-/- mice [3] (male and female mice, compared to murine or TAG-enriched diets) is reported as “increased”. Besides, in the data set with LDLr-/- mice [3], the “development of obesity (weight gain, adiposity, adipocyte hypertrophy)” value is reported as “promotes the development of obesity”. The “macrophage infiltration and lesion size in aortic roots” value in the data set with LDLr-/- mice [5] (immunohistochemistry, compared to TAG-fed mice) is “larger degree of macrophage infiltration and larger lesions”. In addition, the “concentration of lipids in atherosclerotic lesions” value in the data set with LDLr-/- mice [5] was “highest concentration”. Further, in the data set on LDLr-/- mice [5] (male and female mice, compared to TAG-fed mice), the “number and size of atherosclerotic lesions in aortic roots” value was “greater number and size”. Also, in the data set on LDLr-/- mice [5] (male and female mice, compared to control and TAG-enriched diet), the atherosclerotic surface area entry is reported as “striking increase”.
